# In patent publication US20230278981A1, “DICHLOROPHENOL HSD17B13 INHIBITORS AND USES THEREOF” (INIPHARM, INC., priority 2020, published 2023):
# Target: HSD17B13 (Homo sapiens (Human), UniProt Q7Z5P4)
# Assay: LC/MS estrone detection assay: conversion of estradiol to estrone by HSD17B13
# Format: biochemical
# Conditions: 4 μM estradiol, 6 mM NAD+, 30 nM HSD17B13 enzyme (E. coli expressed His-tagged), 2 hours at 26.5° C.
# Summary of the method: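 His-tagged E. coli-expressed HSD17B13 (30 nM) with 4 μM estradiol and 6 mM NAD+ in 1 M potassium phosphate pH 7.4, 0.5% DMSO, 2 h at 26.5° C. Estrone and estradiol quantified by LC-MS/MS after MeCN quench with D4-estrone internal standard; activity as % of uninhibited enzyme, IC50 by four-parameter fit, duplicates.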
# Chain of HSD17B13 (Q7Z5P4 20-300): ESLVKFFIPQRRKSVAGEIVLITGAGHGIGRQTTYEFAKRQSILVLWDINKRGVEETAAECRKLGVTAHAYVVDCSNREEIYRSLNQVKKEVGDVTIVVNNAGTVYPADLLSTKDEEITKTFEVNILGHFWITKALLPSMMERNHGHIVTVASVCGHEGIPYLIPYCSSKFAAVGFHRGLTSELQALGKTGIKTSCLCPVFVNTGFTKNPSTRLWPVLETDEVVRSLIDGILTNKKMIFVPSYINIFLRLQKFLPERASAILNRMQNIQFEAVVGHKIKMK
row,IC50 [nM],SMILES
1,≤ 100,"Cn1nc(CNC(=O)c2ncsc2NC(=O)c2cc(Cl)c(O)c(Cl)c2)c2ccccc21 [Example 188, 5-(3,5-dichloro-4-hydroxybenzamido)-N-((1-methyl-1H-indazol-3-yl)methyl)thiazole-4-carboxamide]"
2,100 to 500,"Cc1ccc(NC(=O)c2cc(Cl)c(O)c(Cl)n2)c2c(=O)n(Cc3ncccc3C(F)(F)F)c(C)nc12 [Example 153, 4,6-dichloro-N-(2,8-dimethyl-4-oxo-3-((3-(trifluoromethyl)pyridin-2-yl)methyl)-3,4-dihydroquinazolin-5-yl)-5-hydroxypicolinamide]"
3,100 to 500,"Cc1ccc(NC(=O)c2cc(Cl)c(O)c(Cl)n2)c2c(=O)n(Cc3nn(C)c4ccccc34)c(C)nc12 [Example 162, 4,6-dichloro-N-(2,8-dimethyl-3-((1-methyl-1H-indazol-3-yl)methyl)-4-oxo-3,4-dihydroquinazolin-5-yl)-5-hydroxypicolinamide]"
4,100 to 500,"O=C(Nc1csc2ncn(Cc3ccccc3)c(=O)c12)c1cc(Cl)c(O)c(Cl)n1 [Example 98, N-(3-benzyl-4-oxo-3,4-dihydrothieno[2,3-d]pyrimidin-5-yl)-4,6-dichloro-5-hydroxypicolinamide]"
5,≤ 100,"Cn1nc(Cn2cnc3cccc(NC(=O)c4cc(Cl)c(O)c(Cl)c4)c3c2=O)c2ccccc21 [Example 117, 3,5-dichloro-4-hydroxy-N-(3-((1-methyl-1H-indazol-3-yl)methyl)-4-oxo-3,4-dihydroquinazolin-5-yl)benzamide]"
6,500 to 1000,"O=C(Nc1ncsc1C(=O)NCC1CCC(F)(F)CC1)c1cc(Cl)c(O)c(Cl)c1 [Example 30, 4-(3,5-dichloro-4-hydroxybenzamido)-N-((4,4-difluorocyclohexyl)methyl) thiazole-5-carboxamide]"
7,≤ 100,"Cc1ccc(NC(=O)c2cc(Cl)c(O)c(Cl)c2)c2c(=O)n(Cc3ccccc3C(F)(F)F)c(C(F)F)nc12 [Example 167, 3,5-dichloro-N-(2-(difluoromethyl)-8-methyl-4-oxo-3-(2-(trifluoromethyl)benzyl)-3,4-dihydroquinazolin-5-yl)-4-hydroxybenzamide]"
8,100 to 500,"O=C(Nc1cccc2nc(C(F)(F)F)n(C3CC3c3ccccc3)c(=O)c12)c1cc(Cl)c(O)c(Cl)c1 (stereo not drawn) [Example 116, 3,5-dichloro-4-hydroxy-N-(4-oxo-3-(2-phenylcyclopropyl)-2-(trifluoromethyl)-3,4-dihydroquinazolin-5-yl)benzamide]"
9,100 to 500,"O=C(Nc1ncsc1C(=O)NCc1ccccc1OC(F)(F)F)c1cc(Cl)c(O)c(Cl)c1 [Example 27, 4-(3,5-dichloro-4-hydroxybenzamido)-N-(2-(trifluoromethoxy)benzyl)thiazole-5-carboxamide]"
10,≤ 100,"O=C(Nc1cccc2ncn(Cc3n[nH]c4ccccc34)c(=O)c12)c1cc(Cl)c(O)c(Cl)c1 [Example 67, N-(3-((1H-indazol-3-yl)methyl)-4-oxo-3,4-dihydroquinazolin-5-yl)-3,5-dichloro-4-hydroxybenzamide]"
11,≤ 100,"Cn1c(=O)n(Cc2ccccc2OC(F)(F)F)c(=O)c2c(NC(=O)c3cc(Cl)c(O)c(Cl)c3)cccc21 [Example 93, 3,5-dichloro-4-hydroxy-N-(1-methyl-2,4-dioxo-3-(2-(trifluoromethoxy)benzyl)-1,2,3,4-tetrahydroquinazolin-5-yl)benzamide]"
12,100 to 500,"O=C(Nc1cccc2ncn(Cc3ccccc3F)c(=O)c12)c1cc(Cl)c(O)c(Cl)c1 [Example 9, 3,5-dichloro-N-(3-(2-fluorobenzyl)-4-oxo-3,4-dihydroquinazolin-5-yl)-4-hydroxybenzamide]"
13,≤ 100,"[2H]C([2H])([2H])c1nc2c(C)ccc(NC(=O)c3cc(Cl)c(O)c(Cl)n3)c2c(=O)n1Cc1ccccc1OC(F)(F)F [Example 176, 4,6-dichloro-5-hydroxy-N-(8-methyl-2-(methyl-d3)-4-oxo-3-(2-(trifluoromethoxy)benzyl)-3,4-dihydroquinazolin-5-yl)picolinamide]"
14,≤ 100,"Cc1nc2c(Cl)ccc(NC(=O)c3cc(Cl)c(O)c(Cl)c3)c2c(=O)n1Cc1ccccc1C(F)(F)F [Example 156, 3,5-dichloro-N-(8-chloro-2-methyl-4-oxo-3-(2-(trifluoromethyl)benzyl)-3,4-dihydroquinazolin-5-yl)-4-hydroxybenzamide]"
15,100 to 500,"N#Cc1ccccc1Cn1cnc2cccc(NC(=O)c3cc(Cl)c(O)c(Cl)n3)c2c1=O [Example 66, 4,6-dichloro-N-(3-(2-cyanobenzyl)-4-oxo-3,4-dihydroquinazolin-5-yl)-5-hydroxypicolinamide]"
16,≤ 100,"Cc1nc2c(F)ccc(NC(=O)c3cc(Cl)c(O)c(Cl)c3)c2c(=O)n1Cc1nn(C)c2ccccc12 [Example 190, 3,5-dichloro-N-(8-fluoro-2-methyl-3-((1-methyl-1H-indazol-3-yl)methyl)-4-oxo-3,4-dihydroquinazolin-5-yl)-4-hydroxybenzamide]"
17,100 to 500,"Cc1nsc(NC(=O)c2cc(Cl)c(O)c(Cl)c2)c1C(=O)NCc1ccccc1F [Example 31, 5-(3,5-dichloro-4-hydroxybenzamido)-N-(2-fluorobenzyl)-3-methylisothiazole-4-carboxamide]"
18,100 to 500,"O=C(Nc1ccc(OCCO)cc1C(=O)NCc1ccccc1OC(F)(F)F)c1cc(Cl)c(O)c(Cl)c1 [Example 86, 3,5-dichloro-4-hydroxy-N-(4-(2-hydroxyethoxy)-2-((2-(trifluoromethoxy)benzyl)carbamoyl)phenyl)benzamide]"
19,100 to 500,"Cc1nc2c(F)ccc(NC(=O)c3cc(Cl)c(O)c(Cl)c3)c2c(=O)n1[C@@H](C)c1ccccc1OC(F)(F)F [Example 173, (S)-3,5-dichloro-N-(8-fluoro-2-methyl-4-oxo-3-(1-(2-(trifluoromethoxy)phenyl)ethyl)-3,4-dihydroquinazolin-5-yl)-4-hydroxybenzamide]"
20,100 to 500,"O=C(Nc1cccc2ncn(Cc3ccc(OCCO)cc3)c(=O)c12)c1cc(Cl)c(O)c(Cl)c1 [Example 58, 3,5-dichloro-4-hydroxy-N-(3-(4-(2-hydroxyethoxy)benzyl)-4-oxo-3,4-dihydroquinazolin-5-yl)benzamide]"
21,100 to 500,"O=C(Nc1cccc2ncn(Cc3cccc(F)c3)c(=O)c12)c1cc(Cl)c(O)c(Cl)c1 [Example 16, 3,5-dichloro-N-(3-(3-fluorobenzyl)-4-oxo-3,4-dihydroquinazolin-5-yl)-4-hydroxybenzamide]"
22,500 to 1000,"Cc1ccc(NC(=O)c2cc(Cl)c(O)c(Cl)c2)c2c(=O)n(Cc3cccc(C(F)(F)F)n3)c(C)nc12 [Example 199, 3,5-dichloro-N-(2,8-dimethyl-4-oxo-3-((6-(trifluoromethyl)pyridin-2-yl)methyl)-3,4-dihydroquinazolin-5-yl)-4-hydroxybenzamide]"
23,≤ 100,"O=C(Nc1scnc1C(=O)NCc1ccccc1OC(F)(F)F)c1cc(Cl)c(O)c(Cl)c1 [Example 32, 5-(3,5-dichloro-4-hydroxybenzamido)-N-(2-(trifluoromethoxy)benzyl)thiazole-4-carboxamide]"

row,SMILES,IC50 [nM]
1,"O=C(Nc1cccc2ncn(Cc3cc[nH]c(=O)c3)c(=O)c12)c1cc(Cl)c(O)c(Cl)c1 [Example 4, 3,5-dichloro-4-hydroxy-N-(3-((2-hydroxypyridin-4-yl)methyl)-4-oxo-3,4-dihydroquinazolin-5-yl)benzamide]",1000 to 10000
